Settings: Liquid, Vibrating tube method

CCC(C)O (stereo not drawn) [butan-2-ol]
Settings | mass density [kg/m3]
343.15 K, 47992 kPa | 801
343.15 K, 49990 kPa | 802.3
343.15 K, 52005 kPa | 803.6
343.15 K, 55047 kPa | 805.7
343.15 K, 57941 kPa | 807.5
343.15 K, 59985 kPa | 808.8
343.15 K, 61963 kPa | 810
343.15 K, 64974 kPa | 811.9
343.16 K, 2963 kPa | 763.4
343.16 K, 66132 kPa | 812.5
348.15 K, 99 kPa | 755
348.15 K, 293 kPa | 755.2
348.15 K, 632 kPa | 755.6
348.15 K, 926 kPa | 756
348.15 K, 1007 kPa | 756
348.15 K, 1961 kPa | 757.1
348.15 K, 2971 kPa | 758.2
348.15 K, 4887 kPa | 760.3
348.15 K, 6901 kPa | 762.5
348.15 K, 8976 kPa | 764.6
348.15 K, 10049 kPa | 765.7
348.15 K, 12159 kPa | 767.9
348.15 K, 15134 kPa | 770.8
348.15 K, 18029 kPa | 773.4
348.15 K, 20029 kPa | 775.3
348.15 K, 22105 kPa | 777.1
348.15 K, 24943 kPa | 779.5
348.15 K, 27937 kPa | 782.1
348.15 K, 29922 kPa | 783.7
348.15 K, 32051 kPa | 785.4
348.15 K, 33089 kPa | 786.2
348.15 K, 33156 kPa | 786.2
348.15 K, 34089 kPa | 786.8
348.15 K, 35121 kPa | 787.6
348.15 K, 37976 kPa | 789.8
348.15 K, 40028 kPa | 791.3
348.15 K, 42107 kPa | 792.9
348.15 K, 44933 kPa | 794.9
348.15 K, 48043 kPa | 797.1
348.15 K, 50077 kPa | 798.4
348.15 K, 52078 kPa | 799.8
348.15 K, 54947 kPa | 801.7
348.15 K, 58004 kPa | 803.6
348.15 K, 60105 kPa | 805.1
348.15 K, 62134 kPa | 806.4
348.15 K, 64952 kPa | 808.1
348.15 K, 66089 kPa | 808.8
353.15 K, 101 kPa | 749.7
353.15 K, 309 kPa | 749.9
353.15 K, 488 kPa | 750.2
353.15 K, 937 kPa | 750.7
353.15 K, 997 kPa | 750.8
353.15 K, 2036 kPa | 752
353.15 K, 5052 kPa | 755.5
353.15 K, 7035 kPa | 757.6
353.15 K, 8919 kPa | 759.7
353.15 K, 10172 kPa | 761
353.15 K, 14941 kPa | 765.8
353.15 K, 20147 kPa | 770.7
353.15 K, 22188 kPa | 772.6
353.15 K, 25053 kPa | 775.1
353.15 K, 28045 kPa | 777.7
353.15 K, 30122 kPa | 779.4
353.15 K, 31946 kPa | 780.9
353.15 K, 32790 kPa | 781.6
353.15 K, 32795 kPa | 781.5
353.15 K, 34025 kPa | 782.5
353.15 K, 35037 kPa | 783.3
353.15 K, 39961 kPa | 787.1
353.15 K, 42055 kPa | 788.7
353.15 K, 45025 kPa | 790.9
353.15 K, 47906 kPa | 793
353.15 K, 51988 kPa | 795.8
353.15 K, 58003 kPa | 799.9
353.15 K, 62118 kPa | 802.6
353.15 K, 65015 kPa | 804.4
353.15 K, 66227 kPa | 805.2
353.16 K, 2973 kPa | 753.1
353.16 K, 12072 kPa | 762.9
353.16 K, 18090 kPa | 768.8
353.16 K, 38061 kPa | 785.7
353.16 K, 49998 kPa | 794.4
353.16 K, 54972 kPa | 797.7
353.16 K, 60035 kPa | 801.2
358.15 K, 94 kPa | 744.2
358.15 K, 317 kPa | 744.5
358.15 K, 531 kPa | 744.8
358.15 K, 912 kPa | 745.3
358.15 K, 2002 kPa | 746.6
358.15 K, 6978 kPa | 752.5
358.15 K, 8996 kPa | 754.7
358.15 K, 14843 kPa | 760.9
358.15 K, 20099 kPa | 766.2
358.15 K, 22025 kPa | 767.9
358.15 K, 25009 kPa | 770.7
358.15 K, 33055 kPa | 777.5
358.15 K, 33103 kPa | 777.7
358.15 K, 34173 kPa | 778.4
358.15 K, 35154 kPa | 779.2
358.15 K, 38016 kPa | 781.5
358.15 K, 40036 kPa | 783.1
358.15 K, 42070 kPa | 784.7
358.15 K, 44944 kPa | 786.8
358.15 K, 47921 kPa | 789
358.15 K, 50038 kPa | 790.5
358.15 K, 52069 kPa | 792
358.15 K, 55065 kPa | 794.1
358.15 K, 58024 kPa | 796.1
358.15 K, 60060 kPa | 797.4
358.15 K, 62217 kPa | 798.9
358.15 K, 65051 kPa | 800.7
358.15 K, 66079 kPa | 801.3
358.16 K, 997 kPa | 745.3
358.16 K, 2956 kPa | 747.8
358.16 K, 4886 kPa | 750.1
358.16 K, 10124 kPa | 755.9
358.16 K, 11961 kPa | 757.9
358.16 K, 17993 kPa | 764.1
358.16 K, 27942 kPa | 773.3
358.16 K, 30089 kPa | 775.1
358.16 K, 32063 kPa | 776.8
363.15 K, 99 kPa | 738.7
363.15 K, 349 kPa | 739
363.15 K, 512 kPa | 739.3
363.15 K, 910 kPa | 739.8
363.15 K, 3038 kPa | 742.5
363.15 K, 12190 kPa | 753.3
363.15 K, 25101 kPa | 766.2
363.15 K, 30034 kPa | 770.6
363.15 K, 33002 kPa | 773.1
363.15 K, 33042 kPa | 773.2
363.15 K, 34072 kPa | 774
363.15 K, 40041 kPa | 779
363.15 K, 42237 kPa | 780.7
363.15 K, 44948 kPa | 782.8
363.15 K, 48033 kPa | 785.1
363.15 K, 50015 kPa | 786.6
363.15 K, 52088 kPa | 788.1
363.15 K, 55038 kPa | 790.2
363.15 K, 57996 kPa | 792.2
363.15 K, 60085 kPa | 793.7
363.15 K, 62081 kPa | 795
363.15 K, 65016 kPa | 796.9
363.15 K, 66010 kPa | 797.6
363.16 K, 1038 kPa | 739.9
363.16 K, 2013 kPa | 741.2
363.16 K, 5065 kPa | 745
363.16 K, 7039 kPa | 747.4
363.16 K, 8975 kPa | 749.7
363.16 K, 10001 kPa | 750.8
363.16 K, 14664 kPa | 755.9
363.16 K, 17691 kPa | 759
363.16 K, 20116 kPa | 761.4
363.16 K, 22089 kPa | 763.4
363.16 K, 28014 kPa | 768.8
363.16 K, 32089 kPa | 772.4
363.16 K, 35096 kPa | 775
363.16 K, 37960 kPa | 777.4
